{"source": "patent US20240108737A1", "about": "“ANTI-INFECTIVE BICYCLIC PEPTIDE LIGANDS” (priority 2021, published 2024)", "key": {"[1]": {"tested_on": "SARS-CoV-2 pseudotyped HIV-1 virions", "details": "72 h"}, "[2]": {"tested_on": "SARS-CoV-2 pseudotyped HIV-1 virions, B.1.1.7 (Alpha)"}, "[3]": {"tested_on": "SARS-CoV-2 pseudotyped HIV-1 virions, B.1.351 (Beta)"}, "[4]": {"tested_on": "SARS-CoV-2 pseudotyped HIV-1 virions, P.1 (Gamma)"}, "[5]": {"tested_on": "SARS-CoV-2 pseudotyped HIV-1 virions, B.1.617.2 (Delta)"}, "[6]": {"tested_on": "SARS-CoV-2 pseudotyped HIV-1 virions, B.1.427 (California)"}, "SARS-CoV-2 [7]": {"tested_on": "SARS-CoV-2", "details": "3 h"}, "SARS-CoV-2 [8]": {"tested_on": "SARS-CoV-2", "details": "hamster, in vivo"}}, "note": "*1 amine or outer side, *2 acyl side, *3 side chain or, on linkers, in order; H or OH if unused. Where a SMILES comes first, the peptide text is derived from it. Bridges are numbered along the chain shown (N, C = ends). Roman numbers before positions name the chains, in order. [ ]: non-standard residue; d: D form. X1 = O=C(CCOCCOCCOCCOCCOCCOCCOCCOCCOCCOCCOCCOCCOCCOCCOCCOCCOCCOCCOCCOCCOCCOCCOCCOCCn1cc(CCC(=O)[*:2])nn1)[*:1]; X3 = O=C(CCc1cn(CCOCCOCCOCCOCCOCCOCCOCCOCCOCCOCCOCCOCCOCCOCCOCCOCCOCCOCCOCCOCCOCCOCCOCCOCCC(=O)[*:2])nn1)[*:1]; TATB = O=C(C[*:1])N1CN(C(=O)C[*:2])CN(C(=O)C[*:3])C1; X2 = C(c1nc(C[*:2])nc(C[*:3])n1)[*:1]; hArg = N=C(N)NCCCC[C@H](N)C(=O)O; tBuAla = CC(C)(C)C[C@H](N)C(=O)O; Agb = N=C(N)NCC[C@H](N)C(=O)O"}
{"smiles": "CC(=O)N[C@@H](C)C(=O)N[C@H]1CSCC(=O)N2CN3CN(C2)C(=O)CSC[C@H](NC(=O)[C@H](C(C)C)NC(=O)[C@@H]2CCCN2C(=O)[C@H](CC(N)=O)NC(=O)[C@H](CC(=O)O)NC(=O)[C@@H]2CCCN2C(=O)[C@H](CO)NC(=O)[C@H](C)NC1=O)C(=O)N[C@@H](CCCNC(=N)N)C(=O)N[C@@H](Cc1ccccc1)C(=O)N[C@@H](Cc1ccc(O)cc1)C(=O)N[C@H](C(=O)N[C@@H](C)C(=O)N[C@@H](CCCCNC(=O)CCc1cn(CCOCCOCCOCCOCCOCCOCCOCCOCCOCCOCCOCCOCCOCCOCCOCCOCCOCCOCCOCCOCCOCCOCCOCCOCCC(=O)NCCCC[C@H](NC(=O)[C@@H]2CSCc4nc5nc(n4)CSC[C@H](NC(C)=O)C(=O)N4CCC[C@H]4C(=O)N[C@@H](Cc4ccc(O)cc4)C(=O)N[C@@H](C(C)C)C(=O)N[C@@H](C)C(=O)NCC(=O)N[C@@H](CCNC(=N)N)C(=O)N[C@H](C)C(=O)N[C@@H]([C@@H](C)O)C(=O)N[C@@H](CSC5)C(=O)N[C@@H](CC(C)C)C(=O)N[C@@H](CC(C)(C)C)C(=O)N2)C(N)=O)nn1)C(N)=O)CSCC3=O", "note": "[BCY17191] (I: Ac-ACASPDNPVCRFYCAK-NH2 / II: Ac-CPYVAG[Agb][dA]TCL[tBuAla]CK-NH2; linker I:2-I:10-I:14 via TATB; linker I:16-II:14 via X3; linker II:1-II:10-II:13 via X2)", "values": [{"measurement": "IC50", "setting": "[1]", "value": 0.0106, "unit": "µM"}]}
{"smiles": "CC(=O)N[C@H]1CSCC(=O)N2CN3CN(C2)C(=O)CSC[C@H](NC(=O)[C@H](C(C)C)NC(=O)[C@@H]2CCCN2C(=O)[C@H](CC(N)=O)NC(=O)[C@H](CC(=O)O)NC(=O)[C@@H]2CCCN2C(=O)[C@H](CC(N)=O)NC(=O)[C@H](C)NC1=O)C(=O)N[C@@H](CCCNC(=N)N)C(=O)N[C@@H](Cc1ccccc1)C(=O)N[C@@H](Cc1ccc(O)cc1)C(=O)N[C@H](C(=O)N[C@@H](CCCCNC(=O)CCOCCOCCOCCOCCOCCOCCOCCOCCOCCOCCOCCOCCOCCOCCOCCOCCOCCOCCOCCOCCOCCOCCOCCOCCn1cc(CCC(=O)NCCCC[C@H](NC(=O)[C@@H]2CSCc4nc5nc(n4)CSC[C@H](NC(C)=O)C(=O)N4CCC[C@H]4C(=O)N[C@@H](Cc4ccc(O)cc4)C(=O)N[C@@H](C(C)C)C(=O)N[C@@H](C)C(=O)NCC(=O)N[C@@H](CCCCNC(=N)N)C(=O)N[C@H](C)C(=O)N[C@@H]([C@@H](C)O)C(=O)N[C@@H](CSC5)C(=O)N[C@@H](CC(C)C)C(=O)N[C@@H](CC(C)(C)C)C(=O)N2)C(N)=O)nn1)C(N)=O)CSCC3=O", "note": "[BCY18786] (I: Ac-CANPDNPVCRFYCK-NH2 / II: Ac-CPYVAG[hArg][dA]TCL[tBuAla]CK-NH2; linker I:1-I:9-I:13 via TATB; linker I:14-II:14 via X1; linker II:1-II:10-II:13 via X2)", "values": [{"measurement": "IC50", "setting": "[1]", "value": 0.0002, "unit": "µM"}, {"measurement": "IC50", "setting": "[2]", "value": 0.006, "unit": "µM"}, {"measurement": "IC50", "setting": "[3]", "value": 0.272, "unit": "µM"}, {"measurement": "IC50", "setting": "[4]", "value": 0.14, "unit": "µM"}, {"measurement": "IC50", "setting": "[5]", "value": 0.437, "unit": "µM"}, {"measurement": "IC50", "setting": "[6]", "value": 0.093, "unit": "µM"}, {"measurement": "IC50", "setting": "SARS-CoV-2 [7]", "value": 0.246, "unit": "µM"}]}
{"smiles": "CC[C@H](C)[C@@H]1NC(=O)[C@H](CCSC)NC(=O)[C@@H]2CSCC(=O)N3CN(CN(C3)C(=O)CSC[C@@H](C(=O)N[C@@H](CCCCNC(=O)CCOCCOCCOCCOCCOCCOCCOCCOCCOCCOCCOCCOCCOCCOCCOCCOCCOCCOCCOCCOCCOCCOCCOCCOCCn3cc(CCC(=O)NCCCC[C@H](NC(=O)[C@@H]4CSCc5nc6nc(n5)CSC[C@H](NC(C)=O)C(=O)N5CCC[C@H]5C(=O)N[C@@H](Cc5ccc(O)cc5)C(=O)N[C@@H](C(C)C)C(=O)N[C@@H](C)C(=O)NCC(=O)N[C@@H](CCNC(=N)N)C(=O)N[C@H](C)C(=O)N[C@@H]([C@@H](C)O)C(=O)N[C@@H](CSC6)C(=O)N[C@@H](CC(C)C)C(=O)N[C@@H](CC(C)(C)C)C(=O)N4)C(N)=O)nn3)C(N)=O)NC(=O)[C@H](C)NC1=O)C(=O)CSC[C@H](NC(C)=O)C(=O)N[C@@H]([C@@H](C)CC)C(=O)N1CCC[C@H]1C(=O)N[C@@H](CC(C)C)C(=O)N[C@@H](CC(=O)O)C(=O)N[C@@H](Cc1c[nH]c3ccccc13)C(=O)N[C@@H]([C@@H](C)O)C(=O)N2", "note": "[BCY18656]", "values": [{"measurement": "IC50", "setting": "SARS-CoV-2 [7]", "value": 0.000314, "unit": "µM"}, {"measurement": "viral load of SARS-CoV-2", "setting": "SARS-CoV-2 [8]", "value": "reduces the viral load"}]}
{"smiles": "CC(=O)N[C@H]1CSCc2nc3nc(n2)CSC[C@H](NC(=O)[C@H]([C@@H](C)O)NC(=O)[C@@H](C)NC(=O)[C@H](CCNC(=N)N)NC(=O)CNC(=O)[C@H](C)NC(=O)[C@H](C(C)C)NC(=O)[C@H](Cc2ccc(O)cc2)NC(=O)[C@@H]2CCCN2C1=O)C(=O)N[C@@H](CC(C)C)C(=O)N[C@@H](CC(C)(C)C)C(=O)N[C@H](C(=O)N[C@@H](CCCCNC(=O)CCOCCOCCOCCOCCOCCOCCOCCOCCOCCOCCOCCOCCOCCOCCOCCOCCOCCOCCOCCOCCOCCOCCOCCOCCn1cc(CCC(=O)NCCCC[C@H](NC(=O)[C@@H]2CSCc4nc5nc(n4)CSC[C@H](NC(C)=O)C(=O)N4CCC[C@H]4C(=O)N[C@@H](Cc4ccc(O)cc4)C(=O)N[C@@H](C(C)C)C(=O)N[C@@H](C)C(=O)NCC(=O)N[C@@H](CCNC(=N)N)C(=O)N[C@H](C)C(=O)N[C@@H]([C@@H](C)O)C(=O)N[C@@H](CSC5)C(=O)N[C@@H](CC(C)C)C(=O)N[C@@H](CC(C)(C)C)C(=O)N2)C(N)=O)nn1)C(N)=O)CSC3", "note": "[BCY17196] (I: Ac-CPYVAG[Agb][dA]TCL[tBuAla]CK-NH2 / II: Ac-CPYVAG[Agb][dA]TCL[tBuAla]CK-NH2; linker I:1-I:10-I:13, II:1-II:10-II:13 via X2; linker I:14-II:14 via X1)", "values": [{"measurement": "IC50", "setting": "[1]", "value": 15.3, "unit": "µM"}]}
